Assay results taken from a melting point compilation (Tetko et al.).

Row | melting point [°C] | SMILES
1 | 99 to 101 | CC(=O)OCC1OC(n2ncc(=O)[nH]c2=O)C(OC(C)=O)C1OC(C)=O (stereo not drawn)
2 | 83 | O=C(Cl)c1ccc(-c2ccco2)s1
3 | 60 | O=C1CCC(=O)N1CCO
4 | 80.5 | OC1CCCCCCCCCCCCCC1
5 | 147 to 148 | CCC(=O)Nc1c(C(=O)Cc2c(C)cc(C)cc2C)oc2ccccc12
6 | 129 | Cc1cc(C#N)cc(Cl)c1N
7 | 241 to 243 | CN1CCN=C1C(C1=NCCN1C)C1=NCCN1C
8 | 26 | COc1ccc(CCCO)cc1
9 | 295 | O=C1NC(=NN=Cc2ccccc2)SC1=Cc1ccccc1
10 | -15.5 | CCCCCCCCC(=O)OCCCCCCC
11 | 124 to 125 | OCc1ccc(-n2cncn2)cc1
12 | 83 | CC(=O)c1ccc2c(c1)OCCO2
13 | 141 to 144 | COC(=O)c1sc(SC)c(S(=O)(=O)C(C)C)c1Cl
14 | 141 | CCCC1CC(C(=O)NC(C(C)Cl)C2OC(SC)C(O)C(O)C2O)N(C)C1 (stereo not drawn)
15 | 99 to 100 | COc1ccccc1C(O)=C1C(=O)CN(C(C)C)C1=O
16 | 153 to 159 | O=[N+]([O-])c1cc(O)ccc1I
17 | 89 | C=Cc1c(Cl)cccc1Cl
18 | 138 | COc1ccc(CCNCC(O)COc2cccc(C)c2)cc1OC (stereo not drawn)
19 | 109 | CCCCCCCCc1ccc(NC(=O)c2ccc(CC)cc2)cc1
20 | 70 to 73 | Brc1nncs1
21 | 310 to 312 | CC(C)(C)c1cc2c(O)c(c1)Cc1cc(C(C)(C)C)cc(c1O)Cc1cc(C(C)(C)C)cc(c1O)Cc1cc(C(C)(C)C)cc(c1O)Cc1cc(C(C)(C)C)cc(c1O)C2
22 | 114 | N#CCC(=O)NN
23 | 125 | CC(=O)NC1C(O)OC(CO)C(O)C1OC(C)C(=O)O (stereo not drawn)

Row | melting point [°C] | SMILES
24 | 175 | CN(C)c1ccc(C(=O)NN)cc1
25 | 97.5 | CCC1(CC)COC(=O)NC1=O
26 | 146 to 148 | CCOC(=O)c1c(C)oc(NC(=O)Nc2ccc(F)cc2)c1C(=O)OCC
27 | -75 | FC(F)CBr
28 | 128 to 131 | Cc1cccc2c(O)cc(C(F)(F)F)nc12
29 | 103 to 105 | NNC(=O)c1ccccc1OC(F)(F)F
30 | 116 | O=S(=O)(c1ccccc1)c1ccsc1
31 | 245 to 248 | O=C(O)C=Cc1ccc(Cl)cc1Cl
32 | 154 to 157 | COC(=O)C1CC(=O)C(C(=O)OC)CC1=O (stereo not drawn)
33 | 124 | CC(C)Oc1cccc(OC(C)C)c1-c1ccccc1P(C1CCCCC1)C1CCCCC1
34 | 43 | COc1cc(OC)cc(C(=O)Cl)c1
35 | 71.5 | Cc1ccc(N=Nc2ccccc2)cc1
36 | 161 to 163 | CC(=O)OCC1OC(n2cc(I)c(=O)[nH]c2=O)CC1OC(C)=O (stereo not drawn)
37 | 141 to 142 | CC(=O)Nc1ccc(N)cc1C
38 | 160 | O=C(O)c1c(O)cccc1F
39 | 267 | O=C(Cc1cc(CC(=O)Nc2ccccc2)c([N+](=O)[O-])cc1[N+](=O)[O-])Nc1ccccc1
40 | 142 | COC(=O)C1(C(=O)OC)Cc2ccc(OC)cc2C(=O)O1
41 | 62 to 64 | Nc1ccc(Br)cc1N
42 | 227 | O=C1c2ccc(O)cc2OC(c2ccc(O)c(O)c2)C1O (stereo not drawn)
43 | 60 to 62 | COc1ccc(C(=O)C(C#N)=C(SC)SC)cc1
44 | 144 | CCOC(=O)C(CCc1ccccc1)NC(C)C(=O)N1CCCC1C(=O)O (stereo not drawn)
45 | 118 | c1ccc(-c2ccccc2-c2ccccc2-c2ccccc2)cc1
46 | 206 to 208 | Brc1nc(Br)c(Br)c(Br)c1Br

Row | melting point [°C] | SMILES
47 | 126 to 128 | OCc1cc(-c2cccs2)[nH]n1
48 | 98 to 99 | Cc1c(C(=O)CBr)sc2ccccc12
49 | 45 to 46 | O=C(CBr)c1ccc(C(F)(F)F)cc1
50 | 92.5 | O=[N+]([O-])c1cccc(F)c1O
51 | 174 to 176 | NC(=O)NNc1ccccc1
52 | 61 to 62 | Cc1ccc(S(=O)(=O)OCCc2coc3ccccc23)cc1
53 | 99.5 to 102 | C=CCc1c(N)c(C(C)=O)cc(C(C)=O)c1O
54 | 95 | CCOC(OCC)c1cccc2c(Br)ccc([N+](=O)[O-])c12
55 | 17.5 | CCCCCCCCCCCC(=O)OCCOCCO
56 | 149 | CCc1ccc2cc(O)c(O)cc2c1
57 | 167 | CCOC(=O)Nc1c([N+](=O)[O-])cc(Cl)cc1[N+](=O)[O-]
58 | 211 | CC(=O)N[C@H]1C(O)O[C@H](CO)[C@@H](O)[C@@H]1O (stereo partly drawn)
59 | 53 | O=S(=O)(CF)c1ccccc1
60 | 121 | Clc1c2ccccc2nc2ccccc12
61 | 138 | Cc1c2ccccc2cc2ccc3ccccc3c12
62 | 149 | Oc1ccc(C#Cc2ccc(F)cc2)cc1
63 | 127 to 130 | COc1ccc(-c2cc[nH]n2)cc1
64 | 235 | COc1cc(NS(C)(=O)=O)ccc1Nc1c2ccccc2nc2ccccc12
65 | 83 | COc1ccc(F)c(C#N)c1
66 | 187 to 191 | NNC(=O)C1CC1C(=O)NN (stereo not drawn)
67 | 158 to 160 | CC1OC(=O)C(C)C1CC(O)C(C)(O)C1CCC2(O)C3=CC(=O)C4CC(O)C(O)CC4(C)C3CCC12C (stereo not drawn)
68 | 45 to 48 | Cc1ccc(S(=O)(=O)OCC2CO2)cc1 (stereo not drawn)
69 | 30 | CCCCCCCCCCCCCCCCC(=O)OC

Row | melting point [°C] | SMILES
70 | 175 to 177 | Cc1nn(-c2ccccc2)nc1C(N)=O
71 | 36 | CN(C)c1ccc(F)cc1
72 | 19 | O=C(Cl)COc1ccc(Cl)cc1
73 | 136 to 138 | COc1ccc(CC(N)=S)cc1OC
74 | 156 | CC12CCC(C(C(O)c3ccccc3)OC1=O)C2(C)C (stereo not drawn)
75 | 172 | CCOC(=O)C(C#N)=C1CC(SC)=C(C(=O)OCC)C(=N)N1c1ccc(OC)cc1
76 | 86 | OCc1ccc(OCc2ccccc2)cc1
77 | 78.5 | Sc1nccs1
78 | 96 to 97 | COC(=O)c1cnc(SC)nc1
79 | 120 to 121 | Cc1nnc(SCc2ccccc2)n1N=Cc1ccc(Cl)cc1
80 | 80 to 82 | CCOC(=O)/C(=N\Nc1ccccc1)C(=O)C(F)(F)F
81 | 170 to 172 | Nc1cccc(F)c1C(=O)O
82 | 132 to 135 | Nc1cccc(S(=O)(=O)N2CCOCC2)c1
83 | 238 | CC(=O)OCC(=O)[C@@]1(O)CC[C@H]2[C@@H]3CCC4=CC(=O)C=C[C@]4(C)[C@H]3[C@@H](O)C[C@@]21C
84 | 63 to 70 | C=C[Si](c1ccccc1)(c1ccccc1)c1ccccc1
85 | 127 to 131 | Cc1cc(C=O)c(O)c(C=O)c1
86 | 105 | O=Cc1c2ccccc2cc2ccccc12
87 | 166 to 167 | Nc1nc(Cl)c2ncn(C3OC(CO)C(O)C3O)c2n1 (stereo not drawn)
88 | 96 | CC1=C(C)C(=O)OC1=O
89 | 96 | N#C/C(=C\c1c(Cl)cccc1Cl)c1nc(-c2ccccc2)cs1
90 | 159 | CC(=O)Oc1ccccc1C(=O)Oc1ccccc1C(=O)O
91 | 119 | Brc1cccc(Br)n1
92 | 25 | O=C(Cl)c1ccc(Br)cc1F

Row | melting point [°C] | SMILES
93 | 53 | C[C@H](O)CC[C@H](C)O
94 | 133 to 135 | O=C(Cl)c1csc(-c2ccc3c(c2)CCO3)n1
95 | 196 to 198 | COCc1cc(=O)oc2cc(O)c(Cl)cc12
96 | 163 | NN=C(/C(=N/N)c1ccc2ccccc2c1)c1ccccc1
97 | 39.5 | O=C1OCCO1
98 | 47 | COc1cccnc1Cl
99 | 183 to 185 | Nc1cnc2ccccc2c1N
100 | 213 to 219 | CS(=O)(=O)c1ccc(C(C=O)C=O)c([N+](=O)[O-])c1
101 | 112 to 115 | CCOC(=O)C(N)=O
102 | 56 to 57 | BrCCOc1ccc(Br)cc1
103 | 32 | OCc1ccc(Br)cc1F
104 | 124 | NC(=O)C1CC1
105 | 105 | CCn1ccc2ccccc21
106 | 86 to 88 | CSc1ncc(C=O)n1Cc1ccccc1
107 | 153 | Cc1ccc(C(c2ccc(C)o2)c2cc([N+](=O)[O-])cc(Br)c2O)o1
108 | 228 | CCOC(=O)C1=C(C)NC(=O)NC1c1cccc([N+](=O)[O-])c1 (stereo not drawn)
109 | 52 | CC(C)c1ccc(CC(=O)O)cc1
110 | 257 | Cc1c(C)c(C)c2c(c1C)CC1(OC2=O)C(=O)c2ccccc2C1=O
111 | 197 | CC(=O)NC(CCC(N)=O)C(=O)O (stereo not drawn)
112 | 211 to 212 | O=C(O)c1ccnc(N2CCCC2)c1
113 | 130 | CCOC(=O)C(C(=O)OCC)C(Br)c1cc(C(Br)C(C(=O)OCC)C(=O)OCC)c([N+](=O)[O-])cc1[N+](=O)[O-] (stereo not drawn)
114 | 92 | N#Cc1ccc(F)c([N+](=O)[O-])c1

Row | SMILES | melting point [°C]
115 | CCc1cccc2ccccc12 | -13.9
116 | O=C1CN=C(c2ccccc2)c2cc(Cl)ccc2N1CC(F)(F)F | 164
117 | CCOC(=O)C1=C(NC(=O)c2ccco2)Oc2c(c(=O)oc3ccccc23)C1c1ccc(Br)cc1 (stereo not drawn) | 140
118 | Nc1cccc2cc3ccccc3cc12 | 116
119 | N#Cc1ccc(N2CCNCC2)cc1 | 82 to 84
120 | CCc1ccc(CCl)cc1 | -21
121 | N#CCc1ccc2c(c1)OCO2 | 43 to 45
122 | CCC1(CC)C(=O)NC(=O)N(C)C1=O | 155
123 | CCOP(=S)(OCC)SCn1c(=O)oc2cc(Cl)ccc21 | 47.8
124 | CCC(C)Nc1c([N+](=O)[O-])cc(C(C)(C)C)cc1[N+](=O)[O-] (stereo not drawn) | 60
125 | Cc1cc(C2CC2)nc(Nc2ccccc2)n1 | 75.9
126 | COc1cc2c(c3oc(=O)c4c(c13)CCC4=O)C1C=COC1O2 (stereo not drawn) | 268 to 269
127 | CCOC(=O)NC(C)(C)Cc1ccc(Cl)cc1 | 52.8
128 | N#Cc1cc(Br)c(O)c(Br)c1 | 190
